Reference: patent US20020111373A1, “Hydrochloride salt of a fused heterocyclic compound” (SANKYO COMPANY, LIMITED, priority 1999, published 2002)
Values after ≈ are worked out from the molar mass of the structure shown.

Legend:
[1] = test system: spontaneously diabetic rats (ZDF/Gmi-fa/fa); test: Blood sugar lowering activity test in spontaneously diabetic rats; assay type: in vivo, rat; settings: for Blood Sugar Level: male ZDF/Gmi-fa/fa rats, average of 6
Procedure: Male spontaneously diabetic rats (ZDF/Gmi-fa/fa) which were 8-10 weeks old were used.
The test compound was suspended in 0.5% CMC solution, and a dose of 0.33 mg/ml/kg was orally administered consecutively for 2 weeks under compulsion. The blood sugar level was measured in a conventional manner. Thus, the tail end (about 1 mm) of rat was cut, and the blood was collected with a hematocrit tube treated with heparin for anti-coagulation and centrifuged. The resultant plasma was measured with Glucoloader F (A&T).

[2] = Solubility experiment in 1st fluid of Japanese Pharmacopeia; assay type: physicochemical; settings: 37° C.; for solubility at 1 h: pH 1.2, simulated gastric fluid, thermodynamic from solid, 40 mg in 200 ml 1st fluid of Japanese Pharmacopeia, HPLC, read-out: Solubility 1.0 hour later
Procedure: To 200 ml of the 1st fluid of Japanese Pharmacopeia (1000 ml solution made by mixing 2.0 g of sodium chloride with 7.0 ml of hydrochloric acid and water) were added 40 mg of Compound A or Compound B, and the mixture was stirred with a stirrer at 37° C. in a 300 ml conical beaker. One hour later, 10 ml of the sample were filtered through Acrodisk LC13 (PVDF, manufactured by German Science Co.). The initial 3 ml were discarded, and the following 7 ml were taken into a test tube. Of this sample, 5 ml were taken accurately with a whole pipette and added to 2 ml of methanol accurately measured in advance in a test tube.
The quantity was measured by HPLC and the solubility was decided from a calibration curve made according to the following procedure.
The calibration curve was made by preparing a methanolic standard solution of Compound A at a concentration of 400 μg/ml, 100 μg/ml and 20 μg/ml, mixing each 2 ml of the standard solution with 5 ml of the 1st fluid of Japanese Pharmacopeia and determined by HPLC.
Analytical column: L-column ODS (4.6 mm ID×15 cm, manufactured by Chemicals Evaluation Research Institute Japan)
Mobile phase: 0.01 mol/L acetic acid buffer solution (pH 5.0)/acetonitrile mixture (13:7)
Flow rate: about 1.0 ml/min.
Column temperature: 40° C.
Detector: ultraviolet absorptiometer (measuring wavelength: 290 nm)

[3] = 3 Days, 0.33 mg/ml/kg orally, consecutive dosing
[4] = 7 Days, 0.33 mg/ml/kg orally, consecutive dosing
[5] = 14 Days, 0.33 mg/ml/kg orally, consecutive dosing

| SMILES | Blood Sugar Level ([1]; 0 Hour (baseline)) | Blood Sugar Level [1, 3] | Blood Sugar Level [1, 4] | Blood Sugar Level [1, 5] | hypoglycemic activity (comparison in words) ([1]; from Table 1, ZDF/Gmi-fa/fa rats, 0.33 mg/ml/kg orally for 2 weeks) | solubility (comparison in words) ([2]; from Table 2, 1st fluid of Japanese Pharmacopeia) | solubility at 1 h [2] |
| --- | --- | --- | --- | --- | --- | --- | --- |
| COc1ccc2nc(COc3ccc(CC4SC(=O)NC4=O)cc3)n(C)c2c1.Cl (stereo not drawn) [Compound A, 5-[4-(6-methoxy-1-methyl-1H-benzimidazol-2-ylmethoxy)benzyl]thiazolidin-2,4-dione hydrochloride] | 456 mg/dL | 228 mg/dL | 206 mg/dL | 207 mg/dL | more excellent hypoglycemic activity than Compound B | markedly better solubility than Compound B | 0.0864 mg/mL |
| COc1ccc2nc(COc3ccc(CC4SC(=O)NC4=O)cc3)n(C)c2c1 (stereo not drawn) [Compound B, 5-[4-(6-methoxy-1-methyl-1H-benzimidazol-2-ylmethoxy)benzyl]-thiazolidin-2,4-dione, reference compound] | 456 mg/dL | 379 mg/dL | 409 mg/dL | 535 mg/dL | – | – | 0.041 mg/mL (≈ 103 µM) |
